{"source": "patent US10881709B2", "about": "“Immune system modulators and compositions” (Canimguide Therapeutics AB, priority 2015, dated 2021)", "key": {"[1]": {"tested_on": "PBMCs from healthy control person", "test": "PBMC activation (CD69/CD71, flow cytometry) in RPMI plus 10% human AB serum", "type": "cell-based", "details": "40 μg/mL, 24 hours, healthy PBMCs", "description": "The activity of peptide P28R (SEQ ID NO: 2) and modifications of P28R was studied in a human ex vivo model using PBMCs in short term cultures, 24 or 48 hours. Effects of P28R and modifications of P28R on PBMCs from a healthy control person were studied. Activation was measured as percentage of cells with enhanced marker CD69 using flow cytometry. PBMCs were incubated with the peptides (40 μg/mL) for 24 hours in RPMI plus 10% human AB serum.\nAs observed in Example 37, P28R (SEQ ID NO: 2) can stimulate PBMCs from healthy controls in short term cultures when RPMI plus 10% normal human AB serum is used as culture medium. Truncations of P28R were also assessed for their ability to activate PBMCs. PBMCs were incubated with the peptides (40 μg/mL) for 24 hours in RPMI plus 10% human AB serum. PBMC activation was measured as percent cells with enhanced expression of either CD69 (FIG. 42A) or CD71 (FIG. 42B) using flow cytometry. Two experiments were performed for each peptide.\nEffects of modified peptides on activation of PBMCs from healthy control person were assessed. Activation was determined as percentage of cells with enhanced marker CD69 or CD71 using flow cytometry. PBMCs were incubated with the peptides (40 μg/mL) for 48 hours in RPMI plus 10% human AB serum."}, "[2]": {"tested_on": "PBMCs", "test": "PBMC activation (CD69) in culture medium with cancer sera", "type": "cell-based", "details": "sera from dogs with cancer or human patients with cancer"}, "[3]": {"molecular_target": "P3028 (SEQ ID NO: 185) (Homo sapiens, UniProt P02768)", "test": "Positional scan: P3028 binding to solid phase P28R variants (ELISA)", "description": "Positional scan data was used to study the influence of substitution of different types of amino acids in each position of P28R (SEQ ID NO: 2) on the binding of P3028 (SEQ ID NO: 185). Each amino acid in the peptide sequence of P28R (SEQ ID NO: 2) was exchanged with all of the naturally occurring amino acids, and immobilized on a solid phase chip. The binding of P3028 to these “mutated” P28 R peptides synthesized on a chip was determined using the ELISA technique. In view of the results, Table 13 includes a column identifying optional substitutions at each position that can maintain binding to P3028."}, "[4]": {"tested_on": "PBMCs", "test": "Direct binding to PBMCs (immunocytochemistry, rosetting of coated beads)", "design": "species or system human"}, "[5]": {"molecular_target": "P3028 (PGE73=His-tag-P3028) (Homo sapiens, UniProt P02768)", "test": "Blocking of P3028 binding by peptide inhibitors in solution (PEPSCAN-based ELISA)", "details": "peptide 0.5 mg/mL", "description": "Three candidate peptide inhibitors of P3028 sequences/structures were identified and their blocking capacity in solution was tested. Potential peptide inhibitors of P3028 were synthesized on a chip. The linear and/or CLIPS peptides were synthesized based on the amino acid sequence of the target protein using standard Fmoc-chemistry and deprotected using trifluoric acid with scavengers. The constrained peptides were synthesized on chemical scaffolds in order to reconstruct conformational epitopes, using Chemically Linked Peptides on Scaffolds (CLIPS) technology (Timmerman et al. (2007)). For example, the single looped peptides were synthesized containing a dicysteine, which was cyclized by treating with alpha, alpha′-dibromoxylene and the size of the loop is varied by introducing cysteine residues at variable spacing. […] After one hour, the color development was measured. The color development was quantified with a charge coupled device (CCD)—camera and an image processing system.\nThe raw data (Raw Data: Optical density, Arbitrary OD units) are optical values obtained by a CCD-camera. The values mostly range from 0 to 3000, a log scale similar to 1 to 3 of a standard 96-well plate ELISA-reader. […] Sometimes a well contains an air-bubble resulting in a false-positive value, the cards are manually inspected and any values caused by an air-bubble are scored as 0. […]"}, "[6]": {"tested_on": "PBMCs", "test": "Mitochondrial metabolism of PBMCs, conversion of MTS", "type": "cell-based, human", "details": "PBMCs from cancer patients, 5-40 μg/ml", "description": "PBMCs from eight healthy control samples and nine cancer patients with various diagnoses (including renal cell cancer, malignant melanoma, rectal cancer, small cell lung cancer, non-small cell lung cancer (adenocarcinoma), squamous cell carcinoma, bladder cancer, osteosarcoma, pancreatic cancer, or bronchial cancer) were cultured in a modified version of the ex vivo model of Example 2 for seven days in the presence of various quantities of P28R (SEQ ID NO: 2), and control samples were untreated with P28R. […] Similar results were obtained when the PBMCs were cultured for only three days.\nPBMCs from cancer patients with various diagnoses were cultured in a modified version of the ex vivo model of Example 2 with various concentrations of P28R or P27 (N=9 for P28R: N=8 for P27). The concentrations were either untreated control samples, 5 μg/mL (“SCF28-R5” and “SCF275”), 10 μg/ml (“SCF28-R10” and “SCF2710”), 20 μg/ml (“SCF28-R20” and “SCF2720”), or 40 μg/ml (“SCF28-R40” and “SCF2740”)."}, "[7]": {"tested_on": "PBMCs", "test": "IL-2 induced proliferation of PBMCs, BrdU incorporation", "type": "cell-based, human", "details": "PBMCs with low initial proliferation / low response to IL-2, 7 days", "description": "PBMCs were cultured for 7 days with IL-2 and the proliferative rate was determined as incorporation of BrdU. Each bar represents mean value of triplets. Similar to the studies on the efficacy of antibodies (see FIG. 22) directed against P3028 to reverse cancer related immunosuppression determined as a poor proliferative response of PBMCs from cancer patients to IL-2, the efficacy of the low molecular weight inhibitor P28R on reversal of suppressed IL-2 induced proliferation was investigated. For each quantity of added P28R, IL-2 stimulated cells 240 are shown in the left, and unstimulated 242 are shown on the right. […]\nThe effect of P28R (SEQ ID NO: 2) on IL-2 induced proliferation was measured in a BrdU incorporation assay. […]\nThe response of high responders and low responders to various doses of P28R was compared. […] IL-2-induced proliferation was measured as BrdU incorporation, as in the above example, and the results are shown for high responders in FIG. 36A, and low responders in FIG. 36B.\nPBMCs from low responder cancer patients of Example 30 were cultured as in Example 30, except that some samples were cultured with various concentrations P28R (aka “SCF28-R”), and others were cultured with various concentrations of P27 (aka “SCF27”). […] BrdU incorporation was measured as in Example 30. […]"}}, "note": "Ends that are not written are not given here.", "data": [{"substance": "FFVKLS [P28 core]", "values": [{"measurement": "PBMC activation, enhanced CD69 or CD71", "setting": "[1]", "result": "did not activate"}, {"measurement": "PBMC activation, enhanced CD69", "setting": "[2]", "result": "activated PBMCs"}, {"measurement": "binding to P3028 based on positional scans", "setting": "[3]", "result": "as efficiently as the full length peptide P28R"}]}, {"substance": "biotinylated P28R: P28R labelled with biotin (KKLDTFFVKLSLFTER; also: biotin label, position not given here)", "values": [{"measurement": "direct binding to PBMCs", "setting": "[4]", "result": "bind directly to PBMCs"}]}, {"substance": "KKLDTFFKKLSLFTER [P27]", "values": [{"measurement": "blocking of the binding of P3028 in solution", "setting": "[5]", "result": "does not"}, {"measurement": "effect on MTS conversion", "setting": "[6]", "result": "no effect"}, {"measurement": "effect on IL-2 induced proliferation (BrdU)", "setting": "[7]", "result": "enhanced the proliferative rate"}]}]}
